Results: BigSolDB 2.1

CC(=O)N1CCN(c2ccc(OC[C@@H]3CO[C@@](Cn4ccnc4)(c4ccc(Cl)cc4Cl)O3)cc2)CC1 (racemic)
solubility (mole fraction) (in NMP, 293.2 K): 0.0212
solubility (mole fraction) (in NMP, 298.2 K): 0.0242
solubility (mole fraction) (in NMP, 303.2 K): 0.0271
solubility (mole fraction) (in NMP, 308.2 K): 0.0301
solubility (mole fraction) (in NMP, 313.2 K): 0.0333
solubility (mole fraction) (in ethanol, 293.2 K): 0.00235
solubility (mole fraction) (in ethanol, 298.2 K): 0.00299
solubility (mole fraction) (in ethanol, 303.2 K): 0.00361
solubility (mole fraction) (in ethanol, 308.2 K): 0.00438
solubility (mole fraction) (in ethanol, 313.2 K): 0.00527
